In patent US8409580B2, “Therapeutic vaccine targeted against P-glycoprotein 170 for inhibiting multidrug resistance in the treatment of cancers” (AC Immune SA, priority 2003, dated 2013):
Ends that are not written are not given here.

Tests used:
[1] = test system: P388R cells; conditions: mice, same cancer model, 100 mg/kg/day (Pierré et al. 1992); cited from earlier work
[2] = trials for treatment of multidrug resistance (Stupp et al. 1998); cited from earlier work
[3] = test system: cancer cells; conditions: by means of an increase in the invasive potential of the cancer cells; cited from earlier work
[4] = test system: mice; test: Immunogenicity of di- and tetrapalmitoylated conjugates in liposomes: antibody detection by Dot Blot and antibody titer; assay type: in vivo
Excerpt: In order to further understand the degree of immunogenicity of the conjugates according to the invention, two types of conjugates were produced and tested. The first type of conjugate corresponds to the synthetic sequences of the peptides derived from the extracellular loops of the murine P-170 protein, covalently coupled to four molecules of fatty acid containing a carbon chain of between C12 and C24, per molecule of peptide. The second type of conjugate is made up of a peptide coupled only to two molecules of fatty acid. This study is illustrated by means of a specific example of dipalmitoylated and tetrapalmitoylated conjugates.
Table III describes the sequences of the di- and tetrapalmitoylated conjugates corresponding to loops 1, 2 and 4 of the murine P-170 protein and also their immunogenic capacity measured through the detection of antibodies by the Dot Blot technique and also the antibody titer by fluorescence units. […] The mpp4 and mpp2 conjugates engender an immune response with an antibody titer in the region of 400 fluorescence units. […] In fact, the synthesis of this loop is very hard and long since there are many possible chemical terminations, or chemical rebridging which could explain the lack of immune response of this first batch of peptides. For the animal immunization trials, a further synthesis of the peptides, in particular of loop 1, was therefore carried out.
The conjugates according to the invention serving as antigenic molecules, diluted in PBS, are firstly deposited at ambient temperature onto nitrocellulose membranes. After 30 minutes, these antigenic molecules are blocked with 3 ml of a solution containing PBS-5% skim milk. The membranes are incubated for 2 hours at ambient temperature, without washing, with 24 μl of murine serum prediluted volume-for-volume with PBS, in 2 ml of PBS containing 1% of skim milk and 0.1% of tween 20. Said murine serum was taken during a period of 15 to 45 days after the third immunization. After three washes in PBS-1% skim milk-0.1% tween 20, the membranes are sequentially incubated for 1 hour at ambient temperature, in 3 ml of PBS-1% skim milk-0.1% tween 20 containing the peroxydase anti-mouse secondary antibody diluted to 1/3000, and then after 2 washes, in 3 ml of PBS-1% skim milk-0.1% tween 20. The membranes are then washed once for 10 minutes in PBS alone and kept in a refrigerator at 4° C. overnight, in 500 μl of PBS. A chemoluminescence peroxydase substrate (ECL™ kit, […] Pharmacie Biotech) is deposited at the surface of the membranes (0.125 ml/cm^2), and left for one minute, and the membranes are then drained off and placed in a “cold” cassette between 2 films of Saran®. The membranes are immediately exposed by autoradiography, the emitted light resulting from the reaction of oxidation of the luminol by the peroxydase being collected on KODAK X-OMAT films with varying times from a few minutes to 1 hour, depending on the strength of the signal. The antibody titers are estimated using a densitometer suitable for the above system. The sensitivity of the chemoluminescence reaction has a threshold for detection of the induced antibodies evaluated at 0.2 ng/ml under the experimental conditions.

[5] = test system: B6D2F1 mice; test: Immune response in vivo in B6D2F1 mice immunized with the vaccine preparations (anti-mpp1, mpp2, mpp4 antibody isotypes, Dot Blot); conditions: further synthesis of the peptide; compared with mpp2 and mpp4
Method: The mice were immunized three times, two weeks apart, by intraperitoneal injection with 200 μl of vaccine composition. This experimental protocol is carried out for the four preparations on groups of nine B6D2F1 mice (Iffa Credo, L'Arbresle, France).
To quantify by Dot Blot the various immunoglobulins induced by the immunization, 100 μl of blood were taken, from each mouse, from the retroorbital sinus one day before the booster and 15 days after the final injection. Each blood sample was then centrifuged and the serum isolated was used for the quantification.
The conjugates according to the invention serving as antigenic molecules, diluted in PBS, are firstly deposited at ambient temperature onto nitrocellulose membranes. After 30 minutes, these antigenic molecules are blocked with 3 ml of a solution containing PBS-5% skim milk. The membranes are incubated for 2 hours at ambient temperature, without washing, with 24 μl of murine serum prediluted volume-for-volume with PBS, in 2 ml of PBS containing 1% of skim milk and 0.1% of tween 20. Said murine serum was taken during a period of 15 to 45 days after the third immunization. […] The sensitivity of the chemoluminescence reaction has a threshold for detection of the induced antibodies evaluated at 0.2 ng/ml under the experimental conditions. […]

[6] = mice injected with liposomes containing the conjugate, first peptide synthesis

Compound: C=CCNc1nc(NCC=C)nc(N2CCC(NCC(c3ccc(F)cc3)c3ccc(F)cc3)CC2)n1 [S9788, 6-[4-[2,2-di-(4-fluorophenyl)ethylamino]-1-piperidinyl]-N,N′-di-2-propenyl-1,3,5-triazine-2,4-diamine]
- increase in survival [1]: 49%
- toxicity limiting use in clinical trials [2]: cardiac toxicity, ventricular arrhythmia and torsade de pointe

Compound: OCCN1CCN(CC/C=C2\c3ccccc3Sc3ccc(C(F)(F)F)cc32)CC1 [trans-flupenthixol]
- effect on mortality [3]: can accelerate mortality

Compound: G-KVLTSFTNKELQAYAK-G-K-NH2 (GKVLTSFTNKELQAYAKGK-NH2; also: two palmitic acids; listed as Mus musculus) [mpp′2]
- Ac titer fluorescence [4, 6]: <10 fluorescence units

Compound: G-SRDDDMETKRQNEN-G-K-NH2 (GSRDDDMETKRQNENGK-NH2; also: two palmitic acids; listed as Mus musculus) [mpp′4]
- Ac titer fluorescence [4, 6]: 100 fluorescence units
- antibody titer relative to the titer induced by mpp4 ([4]; same sequence with two versus four palmityl residues): four times lower

Compound: K-G-GNMTDSFTKAEASILPSITNQSGPNSTLIISNSSLEEE-G-K-K-NH2 (KGGNMTDSFTKAEASILPSITNQSGPNSTLIISNSSLEEEGKK-NH2; also: four palmitic acids; listed as Mus musculus) [mpp1]
- Ac titer fluorescence [4, 6]: <10 fluorescence units
- Detection of antibodies by Dot Blot [4, 6]: no antibody was detected
- antibody titers induced by the conjugate [5]: significant and comparable in value to the antibody titers detected for the mpp2 and mpp4 conjugates
